# Laboratory results published in patent publication US5561131A, “Defaunation method” (Mallinckrodt Veterinary, Inc., priority 1991, dated 1996).
# How the values were obtained:
# rumen ciliate protozoa [1] = assay: In vitro activity of defaunation compounds against rumen ciliate protozoa; assay type: cell-based; settings: 39° C., anaerobic, 3 hours, tested at 50, 150, 250 and 500 ppm
# Method: Compounds of Table 1 were tested for their toxicity against rumen ciliate protozoa by firstly isolating protozoa from rumen liquor collected from faunated animals. The rumen liquor was then centrifuged at 500 g for five minutes and the supernatant discarded. The protozoal-rich sediment was then reconstituted in McDougal's artificial saliva. Residual bacteria were suppressed by using a combination of two antibiotics at low concentration. Nitrogen and energy substrate was optimized for the protozoal preparation. At all times the protozoal preparation was maintained at 39° C. and kept anaerobic.
# Sixty milligrams of each the compounds of Table 1 were dissolved in 1.2 ml of dimethyl sulphoxide and dispersed in triplicate to achieve a final concentration of 50, 150, 250 and 500 ppm. Ten milliliters of protozoal preparation was then added to each tube. After every second compound, control tubes were included which contained everything except for compound. The tubes, to which a 5 ml glass syringe was attached, were then incubated for 3 hours in a water bath at 39° C. The production of gas causes the syringe plunger to be displaced.
# At the end of the incubation period, the volume of gas produced was recorded and the viability of the protozoa assessed visually using a microscope. The toxicity of the compounds to protozoa was assessed from both the reduction in gas produced relative to the control and by direct observation of the protozoa for movement of cilia.
# rumen ciliate protozoa [2] = assay: Protozoal reduction in sheep; assay type: in vivo; set-up: concentration or dose not given beside the values; settings: one week after dosing, relative to predosing numbers
# Method: Defaunation compositions were prepared according to the method of Example 1.
# Prior to dosing of the compound, a sample of rumen liquor (200 ml) was withdrawn to establish basal numbers of protozoa.
# The sample was collected using a stomach tube, inserted into the rumen via a rumen cannula (fistulated animals) or per esophagus (intact animals). After straining the sample was well mixed using a magnetic stirrer and a 0.5 ml sample was withdrawn and added to 49.5 ml of a crystal violet stain. Protozoa were counted using a microscope and a Hawksley counting chamber.
# One week after administering the compound, another rumen liquor sample was collected (as described above) and examined for the presence of protozoa. Where rumen ciliate protozoa were undetectable, a reduction or inhibition value of 100% was recorded. In general, most compounds expressed a strong inhibitory effect on protozoal populations.
# rumen bacteria [3] = assay: Bacterial viability in sheep after administering defaunation compounds; assay type: in vivo; settings: gas production one week after dosing vs pre-dosing
# Method: In order to establish what effect the compounds had on the viability of rumen bacteria, a sample of rumen liquor was collected prior to dosing of the compound. The sample was withdrawn under vacuum using a pre-warmed tube inserted into the rumen through a rumen cannula. The sample was collected in a pre-warmed (39° C.) flask, gassed with carbon dioxide and covered. Two-pre-warmed 30 ml centrifuge tubes were then filled with well mixed rumen liquor and centrifuged at 2000 rpm for 5 minutes. Half the volume of each tube was then poured into another pre-warmed tube without disturbing the sediment. Three lots of 10 ml of this rumen liquor were then pipetted into 15 ml tubes which contained 10 μL of urea solution (40% w/v and 300 μL of glucose solution (50% w/v). The urea and glucose acted as substrate for the bacteria. The tubes were then gassed with carbon dioxide, stoppered and placed in a water bath at 39° C. After 10 minutes a 5 ml glass syringe was secured into the stoppers (through which a hypodermic needle had been inserted) and the gas collected for five hours and recorded.
# This bacterial viability measure was then repeated one week after dosing with each of the compounds referred to in Table 1. Defaunation compositions were prepared according to the method of Example 1. The amount of gas produced was then compared with the pre-dosing level. The criterion for classifying post-dosing bacterial viability is shown below:
# Poor--reduction in post-dosing gas production relative to pre-dosing levels.
# OK--post-dosing gas production the same as pre-dosing levels.
# Good--increase in post-dosing gas production relative to pre-dosing levels.
# [4] = Wool growth in defaunated sheep; assay type: in vivo; settings: 167 mg/kg; for Response To Defaun: clean wool growth defaunated vs refaunated
# Method: Seven sheep each were defaunated using a dose rate of 167 mg/kg. Compounds were administered by first mixing with 20 ml of ethanol and then with 200 ml of centrifuged rumen liquor. This solution was then administered via a flexible stomach tube directly into the rumen. The sheep were fed with a ration of 90% oaten chaff and 10% Lucerne chaff at a rate of 1000 g per day. The sheep were maintained in a defaunated state by their isolation from faunated sheep to prevent the possibility of refaunation. The sheep were allowed to adjust for 3 weeks after administering the compound before any wool growth measurements were taken.
# At the start of the wool growth measurement period, a 10 cm square area of wool was removed from both sides of the sheep. After four weeks the same area was reclipped and the wool retained for scouring at the end of the trial.
# The sheep then had protozoa introduced back into their rumen and were allowed to adjust for three weeks. Similarly, during the second four week period, the wool was clipped from the same patch area. The wool harvested during the two four week trial periods was then scoured of wool wax and extraneous material and weighed.
# protozoa [5] = assay: Sheep test: protozoal numbers; assay type: in vivo
# Method: (§1) In this trial the effect of defaunation by compounds 27, 30 and 37 (see Table 1) after 1 and 3 weeks were examined using penned sheep.
# (§2) The compounds were each administered to two sheep as a single dose at 167 mg/kg body weight. Compositions containing each compound were prepared according to the method of Example 1. Sheep were penned and fed 1000 g/day of a chaffed oaten hay and Lucerne mixture (90/10). Protozoal and bacterial viabilities were monitored along with the feed intake of the sheep according to the methods taught in Examples 2, 3 and 7.
# rumen bacteria [6] = assay: Sheep test: bacterial gas production; assay type: in vivo
# Method: as §1, §2
# Sheep test: feed intake = assay type: in vivo
# Method: as §1, §2
# protozoa [7] = assay: Pilot field testing: elimination of protozoal population in sheep; assay type: in vivo; settings: for Elimination of protozoa: one week after single dose of 167 mg/kg
# Method: (§3) In this trial the effect of defaunation agents after 1 and 2 weeks was examined in sheep in pilot field studies.
# (§4) Thirty mature fine wooled merino weather sheep consuming a forage diet were given a single dose of either compound 27 or 37. The dose rate was 167 mg/kg and each compound was dispersed in 20 mL of ethanol and 200 mL of centrifuged rumen liquor. The compounds were then administered into the rumen using a flexible stomach tube.
# [8] = Pilot field testing: adverse effects and grazing behavior; assay type: in vivo; settings: sheep, 167 mg/kg
# Method: as §3, §4
# protozoa [9] = assay: Cattle defaunation; assay type: in vivo; settings: for Elimination of protozoa from cattle (in words): 332 mg/kg
# Method: Four cattle each were defaunated using either compounds No. 27 or No. 37 at a dose rate of 332 mg/kg. The compounds were administered by firstly mixing with 100 mL of ethanol and then adding 400 mL of centrifuged rumen liquor. This mixture was then administered into the rumen of the animal using a stomach tube.
# protozoa [10] = assay: Pilot field testing: elimination of protozoal population in sheep; assay type: in vivo; settings: week 3, 167 mg/kg
Compound,Conc Required to Kill all Protozoa (rumen ciliate protozoa [1]) [ppm],Protozoal Reduction (rumen ciliate protozoa [2]) [%],Bacterial Viability (rumen bacteria [3]),Response To Defaun ([4]; sheep),Protozoal Nos. (protozoa [5]; 1 week after 167 mg/kg) [per mL × 10^3],Protozoal Nos. (protozoa [5]; 3 weeks after 167 mg/kg) [per mL × 10^3],Protozoal Nos. (protozoa [5]; pre-dose (baseline)) [per mL × 10^3],Bacterial gas production (rumen bacteria [6]; 1 week after 167 mg/kg) [M1 per 5 hr],Bacterial gas production (rumen bacteria [6]; 3 weeks after 167 mg/kg) [M1 per 5 hr],Bacterial gas production (rumen bacteria [6]; pre-dose (baseline)) [M1 per 5 hr],Feed Intake (Sheep test: feed intake; 1 week after 167 mg/kg) [g/day],Feed Intake (Sheep test: feed intake; 3 weeks after 167 mg/kg) [g/day],Feed Intake (Sheep test: feed intake; pre-dose (baseline)) [g/day],Elimination of protozoa (protozoa [7]),"Protozoal number (protozoa [7]; week 0, 167 mg/kg) [per mL × 10^3]","Protozoal number (protozoa [7]; week 1, 167 mg/kg) [per mL × 10^3]","Protozoal number (protozoa [7]; week 2, 167 mg/kg) [per mL × 10^3]",Adverse effects and grazing behavior [8],Elimination of protozoa from cattle (in words) (protozoa [9]),"Mean protozoal number (protozoa [9]; week 0, 332 mg/kg) [per mL × 10^3]",other results
"Clc1nc(Cl)nc(Nc2ccccc2Cl)n1 [Compound 37, 2,4-dichloro-6-(2-chloroanilino)-1,3,5-triazine]",250,100,Okay,8.9,0,0,497,1.9,3.4,1.8,930,820,1000,total elimination of protozoa in all sheep,190,0,0,no adverse effects and grazing behavior was normal,able to eliminate protozoa from cattle,313,"Clean Wool Growth ([4]; 672 h): 1.773 g; Mean protozoal number (protozoa [9]; week 4, 332 mg/kg): 0 per mL × 10^3; Protozoal number (protozoa [10]): 0 per mL × 10^3"
"Cc1ccc(Nc2nc(Cl)nc(Cl)n2)cc1Cl [Compound 27, 2,4 dichloro-6-(3 chloro-4-methylanilino)-s-triazine]",150,100,Okay,10.3,0,0,950,3.5,3.8,2.9,1000,1000,966,total elimination of protozoa in all sheep,285,0,0,no adverse effects and grazing behavior was normal,able to eliminate protozoa from cattle,220,"Clean Wool Growth ([4]; sheep, defaunated period, 4 weeks, per midside patch): 1.753 g; Mean protozoal number (protozoa [9]; week 4, 332 mg/kg): 0 per mL × 10^3; Protozoal number (protozoa [10]): 0 per mL × 10^3"
